Measured values published in patent US12115177B1, “Application of phenyl glucuronide in preparing drug for pre-warning of cancer via induced volatolomics” (Shanghai Jiao Tong University, priority 2023, dated 2024).

Columns and labels:
[1] = Stability verification of phenyl-β-D-glucuronide PBS solution (UPLC-MS and PDA detector); format: physicochemical; settings: for peak area of phenyl-β-D-glucuronide: 400 μg/mL in PBS, PDA detector at 280 nm
Procedure: PBS is used as solvent to prepare a phenyl-β-D-glucuronide solution at a concentration of 400 micrograms per milliliter (μg/mL), 1 mL phenyl-β-D-glucuronide solution is added individually into 1.5-mL injection bottles and sealed. The four bottles of drug solutions are treated as follows: the bottle A is a ready-to-use drug immediately analyzed for composition using ultra performance liquid chromatography mass spectrometry (UPLC-MS); the bottle B is placed in a refrigerator at 4° C. for 2 weeks and then analyzed for composition using UPLC-MS; the bottle C is placed at room temperature (25° C.) for 1 week and then analyzed for composition using UPLC-MS; and the ready-to-use drug in bottle D is analyzed for composition using UPLC-MS and […] (PDA) detectors after heating for 7 hours at 38.5° C. in a water bath. In addition, a 20 parts per million (ppm) phenol standard solution is prepared for UPLC-MS and PDA analysis.
The results are shown in FIGS. 1A-1D, FIGS. 2A-2D, and FIGS. 3A-3E.
The main purpose of setting these three temperatures (i.e., room temperature, 4° C., and 38.5° C.) is to characterize that the drug can be stored in a 4° C. refrigerator or room temperature for a long time without decomposition or deterioration. From the peak area data, it can be seen that the drug can be stored in a 4° C. refrigerator for 2 weeks or at room temperature for 1 week, and the effective component of the drug, phenyl-β-D-glucuronide, is basically unchanged, so under the condition of qualified sealing conditions, the drug solution can be stored for a longer time, which has practical application potential.

[2] = tested on: MGC-803 subcutaneous gastric cancer model
Procedure: In the embodiment of the disclosure, the mice used are 6-week-old female BALB/c-nude mice, specific pathogen-free (SPF) grade, and the weight at purchase is 17±1.5 g. purchased from Shanghai Jessie Experimental Animal Co., Ltd. Mice are raised in cages in clean animal rooms. The cages are ventilated through a central control system. The indoor temperature is 25±2° C., and the feed and water are used after autoclaved.
After one week of adaptive feeding of the nude mice, the body weight is 20±2 g. During the feeding period, the growth and mental state of the mice are observed every day. The mice are randomly divided into two groups, namely a cancer group and a healthy group. In the cancer group, MGC-803 cells are used to construct a subcutaneous gastric cancer model. […] After the cells are adhered to the wall and grown to full size, they are digested with pancreatic enzyme, centrifuged, washed twice with PBS to remove residual serum, resuspended with PBS at a cell density of approximately about 5*10^7 cells/mL, and a cell inoculation volume of each mouse is 100 μL. The cell suspension used for inoculation should be inoculated within half an hour. During this period, the cells are placed on ice to reduce the metabolic activity of the cells to maintain cell activity. The tumor is implanted in the area with abundant blood supply in the middle and rear of the armpit, and the size of the tumor is measured weekly after the tumor is formed. Generally, the induced volatolomics experiment can be started at the third week after the implantation of the cells.
The exhaled breath extraction device enriches the volatile substances in the exhaled breath of mice to the extraction core of headspace solid-phase microextraction (SPME), which is used to analyze the composition and relative content of the exhaled breath of mice before and after drug administration. A large mouth glass container with a volume of about 400 mL is used, the bottle mouth is frosted, and the sealing gasket, silicone plug and fixing clip are used to ensure sealing. The device is cleaned and dried before use. The mice needed to extract exhaled breath components are put into the glass container. The whole device is placed in a constant temperature environment of 25° C., sealed for 1 hour, and supplemented with oxygen at an interval of 15 minutes by injecting 10 mL of pure oxygen (99.9%) through the silicone plug with a glass syringe. After sealing for 1 hour, a 75 μm Car/PDMS extraction core is inserted into the glass container through the silicone plug, and the black extraction core is extended for headspace solid-phase microextraction for 30 minutes. The extraction process is carried out at a constant temperature of 25° C., and the oxygen is supplemented regularly according to the above process.
The above 10 healthy mice and 10 tumor bearing mice are taken and injected with MGC-803 cells subcutaneously as Day 0 in the experiment.

[3] = tested on: gastric mucosal epithelial cells; settings: 500 μg/mL, 40 hours incubation, CCK-8
Procedure: There is culture medium without inoculation of the cells with 100 μL per well. After incubation for 40 hours, the culture medium is discarded, 100 μL DMEM medium containing 10% cell counting kit 8 (CCK-8) is added to each well, and then incubated in the incubator for 2 hours. The value of optical density (OD) at 450 nm is monitored with a microplate reader for each well, and the cell viability is calculated based on the value of optical density.

β-glucuronidase = molecular target: T1, β-glucuronidase (Escherichia coli, UniProt P05804); experiment: In vitro enzymatic reaction with β-glucuronidase, headspace SPME GC-MS detection of phenol; format: biochemical; settings: pH 6.8 buffer, 37° C., 1 hour
T1 construct: purchased Sigma-Aldrich 8162
Procedure: A buffer is prepared with sterile water, the main components of the buffer include 75 millimoles per liter (mM) potassium phosphate (KH2PO4) and 1% bovine serum albumin (BSA), and 1 mole per liter (M) potassium hydroxide (KOH) is used to adjust the pH to 6.8. A phenyl-β-D-glucuronide solution is prepared with deionized water at a concentration of 0.75 grams per liter (g/L). The experiment is divided into a reactive group (also referred to as experimental group) and a control group, and 2.6 mL of deionized water, 2 mL of buffer and 1 mL of phenyl-β-D-glucuronide solution are successively added into two 20 mL injection bottles. After shaking well, they are stabilized in a water bath at 37° C. for 10 minutes. 2 microliters (μL) of β-glucuronidase glycerol solution (enzyme content: 500 U) are added in the bottle of the reactive group, and 2 uL of glycerol is added in the bottle of the control group. The covers are quickly tightened for reacting in a water bath at 37° C. for 1 hour. After the reaction, the aged extraction core is used for headspace solid-phase microextraction (also referred to as solid phase microextraction) for 30 minutes.

T1 sequence (P05804 whole entry): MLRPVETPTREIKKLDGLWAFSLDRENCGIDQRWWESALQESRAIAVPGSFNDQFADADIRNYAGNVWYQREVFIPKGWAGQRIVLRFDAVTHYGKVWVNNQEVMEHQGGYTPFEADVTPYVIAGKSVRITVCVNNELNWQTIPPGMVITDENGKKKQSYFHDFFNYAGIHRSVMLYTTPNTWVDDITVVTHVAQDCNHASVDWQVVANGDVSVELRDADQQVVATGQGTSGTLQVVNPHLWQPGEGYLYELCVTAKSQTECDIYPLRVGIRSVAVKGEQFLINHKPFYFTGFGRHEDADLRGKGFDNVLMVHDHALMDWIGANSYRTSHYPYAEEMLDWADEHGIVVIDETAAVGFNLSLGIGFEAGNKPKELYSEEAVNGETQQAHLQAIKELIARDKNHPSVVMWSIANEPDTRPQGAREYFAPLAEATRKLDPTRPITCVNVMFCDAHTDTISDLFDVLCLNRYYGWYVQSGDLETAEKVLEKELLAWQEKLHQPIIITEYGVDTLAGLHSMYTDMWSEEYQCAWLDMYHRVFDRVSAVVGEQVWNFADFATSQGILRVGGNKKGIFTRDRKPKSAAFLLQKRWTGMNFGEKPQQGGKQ

O=C(O)[C@H]1O[C@@H](Oc2ccccc2)[C@H](O)[C@@H](O)[C@@H]1O [phenyl-β-D-glucuronide]
peak area of phenyl-β-D-glucuronide ([1]; bottle A, newly prepared): 2143 | peak area of phenyl-β-D-glucuronide ([1]; bottle B, refrigerator at 4° C. for 2 weeks): 2142 | peak area of phenyl-β-D-glucuronide ([1]; bottle C, room temperature (25° C.) for 1 week): 2144 | peak area of phenyl-β-D-glucuronide ([1]; bottle D, heated 7 hours at 38.5° C. in a water bath): 2160 | storage time of PBS solution ([1]; 4° C. refrigerator): at least 2 weeks | new substances produced (other peaks) in the four bottles of solutions ([1]; all four storage conditions, UPLC-MS and PDA): no other peaks of the new substances produced | peak of phenol in the four bottles of solutions compared with phenol standard ([1]; all four storage conditions, versus 20 ppm phenol standard): no peak of phenol | self-decomposition without the action of enzymes ([1]; normal body temperature range (generally less than 38.5° C.)): will not decompose by itself | storage time of PBS solution ([1]; room temperature): at least 1 week | phenol level in exhaled breath, tumor bearing mouse group versus healthy mouse group ([2]; Day 0 (no solid tumors), 200 μg/kg intravenously, Mann-Whitney U-test): consistent without significant difference | phenol level in exhaled breath, tumor bearing mouse group versus healthy group ([2]; from the 10th day onwards (solid tumors about 100 mm^3), 200 μg/kg intravenously, p<0.01): significantly higher | toxic or side effect in animal experiment ([2]; mouse, in vivo): no toxic or side effect | fitted curve parameter A (tumor volume=A+B*phenol level in exhaled breath) ([2]; tumor bearing mice, FIG. 6): 2065116.64068±293370.09484 | fitted curve parameter B (tumor volume=A+B*phenol level in exhaled breath) ([2]; tumor bearing mice, FIG. 6): 26167.51388±981.4 | cell viability [3]: greater than 90% | decomposition of substrate without β-glucuronidase (β-glucuronidase; control group, glycerol instead of enzyme): not decomposed | phenol production under the action of β-glucuronidase (β-glucuronidase; experimental group, 500 U enzyme): produces phenol
